Here are results for eight compounds from US8084649B2, “Herbicides” (Syngenta Crop Protection, inc., priority 2007, dated 2011).

What all share (assay type): in vivo
Assay [1] concerns Alopecurus myosuroides (ALOMY). Description: Post-emergence herbicidal activity, glasshouse pot test. The settings on record: Alopecurus myosuroides, evaluated after 14 or 15 days, read-out: Post-emergence activity, ALOMY (100=total damage to plant; 0=no damage to plant); for pest or weed control at 500 g/ha: rate 500 g/ha; for pest or weed control at 125 g/ha: rate 125 g/ha. The procedure, abridged: (§1)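 Visual damage ratings on a 0–100 scale (100 = plant killed) were taken 14 or 15 days after treatment. Seedlings had been raised for 10 days in sterilised soil in a glasshouse before spraying with an aqueous solution of the formulated active ingredient.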

In assay [2] the test system is Digitaria sanguinalis (DIGSA). The assay is described as above. The settings on record: Digitaria sanguinalis, evaluated after 14 or 15 days, read-out: Post-emergence activity, DIGSA (100=total damage to plant; 0=no damage to plant); for pest or weed control at 500 g/ha: rate 500 g/ha; for pest or weed control at 125 g/ha: rate 125 g/ha. A digest of the protocol: as §1

Assay [3] relates to Avena fatua (AVEFA). The assay is described as above. Particulars: Avena fatua, evaluated after 14 or 15 days, read-out: Post-emergence activity, AVEFA (100=total damage to plant; 0=no damage to plant); for pest or weed control at 500 g/ha: rate 500 g/ha; for pest or weed control at 125 g/ha: rate 125 g/ha. A digest of the protocol:
as §1

For assay [4], the system named is Setaria faberi (SETFA). Described as above. The settings on record: Setaria faberi, evaluated after 14 or 15 days, read-out: Post-emergence activity, SETFA (100=total damage to plant; 0=no damage to plant); for pest or weed control at 500 g/ha: rate 500 g/ha; for pest or weed control at 125 g/ha: rate 125 g/ha. The procedure, abridged:
as §1

In assay [5] the test system is Lolium perenne (LOLPE). Described as above. Particulars: Lolium perenne, evaluated after 14 or 15 days, read-out: Post-emergence activity, LOLPE (100=total damage to plant; 0=no damage to plant); for pest or weed control at 500 g/ha: rate 500 g/ha; for pest or weed control at 125 g/ha: rate 125 g/ha. A digest of the protocol: as §1
The test system of assay [6] is Echinochloa crus-galli (ECHCG). The assay is described as above. Particulars: Echinochloa crus-galli, evaluated after 14 or 15 days, read-out: Post-emergence activity, ECHCG (100=total damage to plant; 0=no damage to plant); for pest or weed control at 500 g/ha: rate 500 g/ha; for pest or weed control at 125 g/ha: rate 125 g/ha. A digest of the protocol: as §1
Assay [7] has as its system Alopecurus myosuroides (ALOMY). Description: Pre-emergence herbicidal activity, glasshouse pot test. The settings on record: Alopecurus myosuroides, 480 h, evaluated after 20 days, read-out: Pre-emergence activity, ALOMY (100=total damage to plant; 0=no damage to plant); for pest or weed control at 500 g/ha: rate 500 g/ha. The procedure, abridged: (§2)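 Test compound, taken up in acetone with an Emulsogen EL/NMP/dipropylene glycol monomethyl ether/X-77 formulant and diluted with water, was sprayed onto soil of freshly sown pots after one day of cultivation. Evaluation at 20 days used a 0–100 injury rating.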

Assay [8] deals with Digitaria sanguinalis (DIGSA). Described as above. Particulars: Digitaria sanguinalis, 480 h, evaluated after 20 days, read-out: Pre-emergence activity, DIGSA (100=total damage to plant; 0=no damage to plant); for pest or weed control at 500 g/ha: rate 500 g/ha. The procedure, abridged:
as §2

The test system of assay [9] is Avena fatua (AVEFA). The assay is described as above. Particulars: Avena fatua, 480 h, evaluated after 20 days, read-out: Pre-emergence activity, AVEFA (100=total damage to plant; 0=no damage to plant); for pest or weed control at 500 g/ha: rate 500 g/ha. A digest of the protocol:
as §2

The test system of assay [10] is Setaria faberi (SETFA). The description is as above. The settings on record: Setaria faberi, 480 h, evaluated after 20 days, read-out: Pre-emergence activity, SETFA (100=total damage to plant; 0=no damage to plant); for pest or weed control at 500 g/ha: rate 500 g/ha. A digest of the protocol: as §2
In assay [11] the test system is Lolium perenne (LOLPE). The assay is described as above. The settings on record: Lolium perenne, 480 h, evaluated after 20 days, read-out: Pre-emergence activity, LOLPE (100=total damage to plant; 0=no damage to plant); for pest or weed control at 500 g/ha: rate 500 g/ha. The procedure, abridged:
as §2

Assay [12] relates to Echinochloa crus-galli (ECHCG). The assay is described as above. Particulars: Echinochloa crus-galli, 480 h, evaluated after 20 days, read-out: Pre-emergence activity, ECHCG (100=total damage to plant; 0=no damage to plant); for pest or weed control at 500 g/ha: rate 500 g/ha. A digest of the protocol:
as §2

Each structure is given as a SMILES string.

As for `Cc1cc(C)c(C2=C(O)CC3(CCSCC3)CC2=O)c(C)c1` [Compound T6], the pest or weed control at 500 g/ha in [1] stood at 20%; in assay [2] it was 90%; in the assay on Avena fatua (AVEFA) [3], 10%; in the assay with Setaria faberi (SETFA) [4], 80%; in the assay on Lolium perenne (LOLPE) [5] it was 10%; in assay [6], 80%. In addition, the pest or weed control at 500 g/ha in assay [7] is 20%; in assay [8] it was 10%; in the assay with Avena fatua (AVEFA) [9], 30%; in the assay with Setaria faberi (SETFA) [10], 10%; in the assay with Lolium perenne (LOLPE) [11] it was 0%; in assay [12], 10%.

Take `CCc1cc(C)cc(CC)c1C1=C(O)CC(CC(C)SC)CC1=O` (stereo not drawn) [Compound T17]: the pest or weed control at 500 g/ha in [1] was 0%; in assay [2], 100%; in the assay on Avena fatua (AVEFA) [3], 90%; in the assay with Setaria faberi (SETFA) [4], 90%; in the assay with Lolium perenne (LOLPE) [5] it was 100%; in assay [6], 90%. The pest or weed control at 500 g/ha was determined as 90% in assay [7]; 100% in assay [8]; 90% in the assay with Avena fatua (AVEFA) [9]; 100% in the assay with Setaria faberi (SETFA) [10]; 100% in the assay with Lolium perenne (LOLPE) [11]; 100% in assay [12].

In the case of `CCc1cc(C)cc(CC)c1C1=C(OC(=O)Oc2ccccc2)CC2(CCOCC2)CC1=O` [Compound P18], the pest or weed control at 125 g/ha in assay [1] is 80%; in assay [2], 70%; with Avena fatua (AVEFA) [3], 100%; in the assay with Setaria faberi (SETFA) [4], 50%; in the assay with Lolium perenne (LOLPE) [5], 90%; in [6], 100%. Also, the pest or weed control at 500 g/ha in [7] worked out at 100%; in assay [8] it was 100%; in the assay on Avena fatua (AVEFA) [9], 100%; with Setaria faberi (SETFA) [10], 100%; with Lolium perenne (LOLPE) [11], 100%; in assay [12], 80%.

`CCc1cc(C)cc(CC)c1C1=C(O)CC2(CC[S+]([O-])CC2)CC1=O` (stereo not drawn) [Compound T52]: the pest or weed control at 125 g/ha in [1] is 60%; in [2], 60%; with Avena fatua (AVEFA) [3], 60%; in the assay on Setaria faberi (SETFA) [4], 20%; with Lolium perenne (LOLPE) [5], 40%; in assay [6] it was 30%. Besides, the pest or weed control at 500 g/ha in assay [7] worked out at 90%; in [8] it was 70%; in the assay on Avena fatua (AVEFA) [9], 100%; in the assay with Setaria faberi (SETFA) [10] it was 70%; with Lolium perenne (LOLPE) [11] it was 100%; in assay [12] it was 10%.

Turning to `CCc1cc(C)cc(CC)c1C1=C(O)CC(C(C)(C)S(C)(=O)=O)CC1=O` (stereo not drawn) [Compound T19], the pest or weed control at 250 g/ha (in assay [1] (rate 250 g/ha); in [2] (rate 250 g/ha); in the assay on Avena fatua (AVEFA) [3] (rate 250 g/ha); in the assay with Setaria faberi (SETFA) [4] (rate 250 g/ha); in the assay on Lolium perenne (LOLPE) [5] (rate 250 g/ha); in [6] (rate 250 g/ha)) was 80% each time. For the same compound, the pest or weed control at 250 g/ha in [7] (rate 250 g/ha) came out at 70%; in [8] (rate 250 g/ha) it was 90%; in the assay with Avena fatua (AVEFA) [9] (rate 250 g/ha) it was 70%; in the assay with Setaria faberi (SETFA) [10] (rate 250 g/ha), 50%; with Lolium perenne (LOLPE) [11] (rate 250 g/ha), 80%; in [12] (rate 250 g/ha) it was 80%.

With `CCc1cc(C)cc(CC)c1C1=C(O)CC(CC(C)S(C)(=O)=O)CC1=O` (stereo not drawn) [Compound T30], the pest or weed control at 500 g/ha in assay [1] worked out at 70%; in [2], 100%; with Avena fatua (AVEFA) [3], 90%; in the assay on Setaria faberi (SETFA) [4] it was 100%; with Lolium perenne (LOLPE) [5], 80%; in assay [6], 100%. The pest or weed control at 500 g/ha was 80% in [7]; 100% in [8]; 80% in the assay with Avena fatua (AVEFA) [9]; 100% in the assay with Setaria faberi (SETFA) [10]; 90% in the assay on Lolium perenne (LOLPE) [11]; 100% in assay [12].

On to `CCc1cc(C)cc(CC)c1C1=C(OC(=O)CC2CCCC2)CC2(CCOCC2)CC1=O` [Compound P11], for which the pest or weed control at 125 g/ha in assay [1] stood at 90%; in assay [2], 70%; in the assay on Avena fatua (AVEFA) [3], 100%; with Setaria faberi (SETFA) [4], 70%; in the assay with Lolium perenne (LOLPE) [5], 90%; in [6] it was 70%. In addition, the pest or weed control at 500 g/ha was determined as 100% in [7]; 100% in assay [8]; 90% in the assay with Avena fatua (AVEFA) [9]; 100% in the assay on Setaria faberi (SETFA) [10]; 90% in the assay on Lolium perenne (LOLPE) [11]; 90% in assay [12].

Consider `COC1CCC2(CC1)CC(=O)C(c1cc(-c3ccc(Cl)cc3)ccc1C)=C(O)C2` (stereo not drawn) [Compound T69], for which the pest or weed control at 125 g/ha in assay [1] came out at 20%; in assay [2], 0%; in the assay with Avena fatua (AVEFA) [3], 10%; with Setaria faberi (SETFA) [4], 0%; in the assay with Lolium perenne (LOLPE) [5], 50%; in assay [6], 0%. For the same compound, the pest or weed control at 500 g/ha was determined as 0% in [7]; 100% in [8]; 30% in the assay on Avena fatua (AVEFA) [9]; 70% in the assay on Setaria faberi (SETFA) [10]; 60% in the assay with Lolium perenne (LOLPE) [11]; 70% in assay [12].
